Patent publication US11890296B2, “Anti-tumor agent containing cytarabine, anti- tumor effect enhancing agent which is used in combination with cytarabine, anti-tumor kit, and anti-tumor agent which is used in combination with cytarabine” (priority 2018, dated 2024)

Tests used:
[1] = tested on: human myeloid leukemia cell line THP1; experiment: Cell proliferation test (Cell Titer-Glo), THP1; type: cell-based; conditions: THP1 cells, cytarabine alone
Procedure: (§1) The cell proliferation test was performed using human myeloid leukemia cell line U-937 (ATCC, CRL-1593.2), MOLM-13 (DSMZ, ACC 554), HL60 (ATCC, CRL-240), SKM-1 (JCRB cell bank, JCRB0118), OCI-M2 (DSMZ, ACC 619), NOMO-1 (JCRB cell bank, IFO050474), MV4-11 (ATCC, CRL-9591), THP1 (ATCC, TIB-202), and human peripheral blood mononuclear cell PBMC (CTL, CTL-UP-1). As the culture medium of U-937 cells, MOLM-13 cells, HL60 cells, SKM-1 cells, OCI-M2 cells, NOMO-1 cells, MV4-11 cells, and THP1 cells, RPMI1640 (FUJIFILM Wako Pure Chemical Corporation, 189-02025) added with 10% fetal bovine serum (Thermo Fisher Scientific, Inc., 10437-028) and 1% penicillin-streptomycin (10,000 U/mL, Thermo Fisher Scientific, Inc., 15140-122) was used. […] After culturing overnight, 5 μL of FLA3527, ASLAN003, BAY2402234, or cytarabine (Ara-C, C2035, Tokyo Chemical Industry Co., Ltd.) at the predetermined concentration was added, and 3 days later, 25 μL of Cell Titer-Glo (registered trade mark) luminescent cell viability assay (Promega Corporation, G7573) was added, and the light emission amount was measured using an Envision plate reader (PerkinElmer, Inc.). […] The proliferation inhibition concentration for each compound concentration was calculated by the following expression. […]
(§2) The CI indicating the combined effect of Ara-C and the DHODH inhibitor compound was calculated using the software CalcuSyn of Biosoft.

[2] = tested on: human myeloid leukemia cell line MV4-11; experiment: Cell proliferation test (Cell Titer-Glo), MV4-11; type: cell-based; conditions: MV4-11 cells, Ara-C alone
Procedure: as §1, §2

Nc1ccn([C@@H]2O[C@H](CO)[C@@H](O)[C@@H]2O)c(=O)n1 [Ara-C, cytarabine]
cytarabine sensitivity of the cell line [1]: insensitive
Ara-C sensitivity of the cell line [2]: sensitive
